The results in this text go back to patent US20050112551A1, “Dual assay for evaluating activity and cytotoxicity of compounds in the same population of cells” (AGOURON PHARMACEUTICALS, INC., priority 2003, published 2005).

Read-outs that look alike come from different tables or passages of the source.

The subject of series [1] is HIV-1 RF infection of CEM-SS cells. Put plainly: HIV-1 RF cell protection assay (XTT dye reduction), antiviral activity. It counts as cell-based. As to conditions: for HIV-1 RF Cell Protection Assay TI (therapeutic index, CC50/EC50): CC50 divided by EC50, cell protection assay; for EC50: read-out: HIV-1 RF Cell Protection Assay EC50. A general note: Tetrazolium dyes change colour on reduction, which living cells bring about.

The nature of series [2]: HIV-1 RF cell protection assay (XTT dye reduction), cytotoxicity in uninfected cells. It counts as cell-based. As to conditions: human. The method, then: (§1) The antiviral activities of compounds were also evaluated in cell protection assays by the XTT dye reduction method. CEM-SS subject cells were infected with HIV-1 RF virus at an moi of 0.025 to 0.819 or mock infected with medium only and added at 2×10^4 cells per well into 96-well plates containing half-log dilutions of test compounds. Six days later, 50 μl of XTT (1 mg/ml XTT tetrazolium, […] phenazine methosulfate) was added to the wells and the plate was reincubated for four hours. Viability, as determined by the amount of XTT formazan produced, was quantified spectrophotometrically by absorbance at 450 nm.
(§2) Data from cell protection assays were expressed as the percent of formazan produced in compound-treated cells compared to formazan produced in wells of uninfected, compound-free cells.

For series [3], the system named is VSV/HIVLuc infection of HeLa HRLuc cells.
The nature of series [4]: in vitro. Conditions: human.
Series [5] relates to VSV/HIVLuc infection of HeLa HRLuc cells. The series is described as follows: microbe, parasite or virus in culture. Conditions: Vesicular stomatitis virus, 72 h, read-out: Dual Reporter Assay EC50. For orientation: A reporter such as luciferase makes a cellular process visible.
Series [6] concerns CEM-SS cells. Put plainly: HIV-1 RF cell protection assay (XTT dye reduction), cytotoxicity in uninfected cells. It counts as cell-based. As to conditions: XTT dye reduction, uninfected CEM-SS cells, six days; mean of 2 to 3 experiments. The method, then:
as §1, §2

Series [7] has as its system HeLa HRLuc cells. As to conditions: read-out: Dual Reporter Assay CC50; Renilla luciferase reporter in infected HeLa HRLuc cells, ~72 hours; mean of 2 to 3 experiments.
Setting [8] is: Human immunodeficiency virus 1, 144 h, XTT dye reduction six days after infection of CEM-SS cells with HIV-1 RF, mean of 2 to 3 experiments.
[9] abbreviates: uninfected (mock-infected) CEM-SS cells, XTT dye reduction, uninfected CEM-SS cells, six days, mean of 2 to 3 experiments, read-out: HIV-1 RF Cell Protection Assay CC50.
[10] abbreviates: XTT dye reduction, uninfected CEM-SS cells, six days, mean of 2 to 3 experiments, read-out: HIV-1 RF Cell Protection Assay CC50.

As to `Cc1cn([C@H]2C[C@H](N=[N+]=[N-])[C@@H](CO)O2)c(=O)[nH]c1=O` [AZT, 3′-Azido-3′-deoxythymidine], the “HIV-1 RF Cell Protection Assay TI (therapeutic index, CC50/EC50)” value in series [1] is on record as >40,000. Besides, the EC50 amounted to 0.008 µM in series [1] (setting [8]) and 0.029 µM in series [5]. Further, the CC50 at 6 days in series [2] (setting [9]) was over 320 µM. Also, the “Dual Reporter Assay TI (therapeutic index, CC50/EC50)” value in series [3] is recorded as >11,034. The same compound showed a CC50 in series [4] of over 320 µM.

For `CC(C)Nc1cccnc1N1CCN(C(=O)c2cc3cc(NS(C)(=O)=O)ccc3[nH]2)CC1` [DLV, delavirdine], the “HIV-1 RF Cell Protection Assay TI (therapeutic index, CC50/EC50)” value in series [1] was 6,961. Moreover, the EC50 amounted to 0.013 µM in series [1] (setting [8]) and 0.02 µM in series [5]. The CC50 at 6 days in series [2] (setting [10]) was 90.5 µM. The “Dual Reporter Assay TI (therapeutic index, CC50/EC50)” value in series [3] was over 5000. The compound further had a CC50 in series [4] of over 100 µM.

As to `O=c1[nH]cnc2c1ncn2[C@H]1CC[C@@H](CO)O1` [ddl, didanosine], the EC50 stood at 12.9 µM in series [1] (Human immunodeficiency virus 1, CEM-SS, 144 h) and 0.59 µM in series [5]. For the same compound, the CC50 at 6 days in series [2] (setting [9]) was over 32 µM. The compound also yielded a CC50 in series [4] of over 32 µM.

For the compound `Nc1ccn([C@@H]2CS[C@H](CO)O2)c(=O)n1` [Compound 3TC, lamivudine], the “HIV-1 RF Cell Protection Assay TI (therapeutic index, CC50/EC50)” value in series [1] is listed as >15,384. For the same compound, the 50% effective concentration (EC50) is 0.065 µM in series [1] (setting [8]) and 0.14 µM in series [5]. Also, the CC50 at 6 days in series [2] is over 1000 µM. Further, the “Dual Reporter Assay TI (therapeutic index, CC50/EC50)” value in series [3] is given as over 229. The compound also had a CC50 in series [4] of over 32 µM.

As to `CC(C)c1nc(COC(N)=O)n(Cc2ccncc2)c1Sc1cc(Cl)cc(Cl)c1` [CPV, Capravirine], in series [1], the “HIV-1 RF Cell Protection Assay TI (therapeutic index, CC50/EC50)” value is listed as 47,214. Besides, the EC50 was 0.0014 µM in series [1] (setting [8]) and 0.0015 µM in series [5]. Moreover, the CC50 at 6 days in series [2] (setting [10]) stood at 66.1 µM. In addition, the “Dual Reporter Assay TI (therapeutic index, CC50/EC50)” value in series [3] is reported as 24,266. The compound also registered a CC50 in series [4] of 36.4 µM.

Regarding `Cc1ccnc2c1NC(=O)c1cccnc1N2C1CC1` [NVP, Nevirapine], the “HIV-1 RF Cell Protection Assay TI (therapeutic index, CC50/EC50)” value in series [1] is listed as >30,303. For the same compound, the EC50 worked out at 0.033 µM in series [1] (setting [8]) and 0.031 µM in series [5]. Further, in series [2] (setting [10]), the CC50 at 6 days is over 1000 µM. Besides, the “Dual Reporter Assay TI (therapeutic index, CC50/EC50)” value in series [3] is over 1032. The same compound yielded a CC50 in series [4] of over 32 µM.

Turning to `O=C1Nc2ccc(Cl)cc2[C@@](C#CC2CC2)(C(F)(F)F)O1` [EFV, efavirenz], the “HIV-1 RF Cell Protection Assay TI (therapeutic index, CC50/EC50)” value in series [1] is on record as 38,266. For the same compound, the EC50 turned out to be 0.0015 µM in series [1] (setting [8]) and 0.0004 µM in series [5]. Further, the CC50 at 6 days in series [2] (setting [10]) worked out at 57.4 µM. The “Dual Reporter Assay TI (therapeutic index, CC50/EC50)” value in series [3] was 179,250. In series [4], this compound registered a CC50 of 71.7 µM.

For the compound `O=C(O)C(=O)CC(=O)c1cccn1Cc1ccc(F)cc1` [Compound L-731988], the “HIV-1 RF Cell Protection Assay TI (therapeutic index, CC50/EC50)” value in series [1] is on record as 55.6. Moreover, the EC50 in series [1] (XTT dye reduction six days after infection of CEM-SS cells with HIV-1 RF, mean of 2 to 3 experiments) stood at 4.5 µM; in series [3] (read-out: Dual Reporter Assay EC50), 1.8 µM. For the same compound, the CC50 in series [6] worked out at 250 µM; in series [7], 166 µM. In series [3], the “Dual Reporter Assay TI (therapeutic index, CC50/EC50)” value was 92.2.

For `Cc1cn([C@H]2C=C[C@@H](CO)O2)c(=O)[nH]c1=O` [d4T, stavudine], the “HIV-1 RF Cell Protection Assay TI (therapeutic index, CC50/EC50)” value in series [1] was over 64. In addition, the EC50 in series [1] (setting [8]) amounted to 0.51 µM; in series [5], 0.27 µM. Also, the CC50 at 6 days in series [2] (setting [10]) was over 32 µM. For the same compound, the “Dual Reporter Assay TI (therapeutic index, CC50/EC50)” value in series [3] was over 119. In series [4], this compound showed a CC50 of over 32 µM.

The term EC50 denotes the midpoint of the concentration-response curve.
